Drawing on PubChem BioAssay AID212 (DTP/NCI, 2004), this text covers T/C for 13 compounds.

The experiment concerns BDF1 mice, colon carcinoma 38 sc, T/C %. Nature of the experiment: NCI In Vivo Anticancer Drug Screen. Data for tumor model Colon Carcinoma 38 (subcutaneous) in B6D2F1 (BDF1) mice. Conditions: endpoint: median tumor weight (est.), higher = larger tumour. Summed up:
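Ratio of survival or tumor size, compound-treated animals relative to vehicle controls, in tumor-bearing mice.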

Setting [1] is: dose: 5.0 mg/kg/injection, schedule: Q07DX002 (ip), vehicle: water.
Where [2] appears, read: dose: 10.0 mg/kg/injection, schedule: Q07DX002 (ip), vehicle: water.
Where [3] appears, read: dose: 20.0 mg/kg/injection, schedule: Q07DX002 (ip), vehicle: water.
Where [4] appears, read: dose: 1.56 mg/kg/injection, schedule: Q07DX002 (ip), vehicle: saline.
The mark [5] stands for this setting: dose: 3.12 mg/kg/injection, schedule: Q07DX002 (ip), vehicle: saline.
Where [6] appears, read: dose: 6.25 mg/kg/injection, schedule: Q07DX002 (ip), vehicle: saline.
[7] abbreviates: dose: 12.5 mg/kg/injection, schedule: Q07DX002 (ip), vehicle: saline.
Setting [8] is: dose: 25.0 mg/kg/injection, schedule: Q07DX002 (ip), vehicle: saline.
Setting [9] is: dose: 50.0 mg/kg/injection, schedule: Q07DX002 (ip), vehicle: saline.
Where [10] appears, read: dose: 25.0 mg/kg/injection, schedule: Q07DX002 (ip), vehicle: Klucel (hydroxypropylcellulose) (HPC).
The mark [11] stands for this setting: dose: 50.0 mg/kg/injection, schedule: Q07DX002 (ip), vehicle: Klucel (hydroxypropylcellulose) (HPC).
[12] abbreviates: dose: 100.0 mg/kg/injection, schedule: Q07DX002 (ip), vehicle: Klucel (hydroxypropylcellulose) (HPC).
Setting [13] is: dose: 200.0 mg/kg/injection, schedule: Q07DX002 (ip), vehicle: Klucel (hydroxypropylcellulose) (HPC).

Values joined by “and” are separate entries in the source; they are usually repeats but may differ in a detail not shown here. Equal entries are not always repeated. Records with an inconclusive call do not appear.

For the compound `CCOC(=O)C(CC(C)C)NC(=O)C(N)Cc1ccc(N(CCCl)CCCl)cc1` (centres undefined), the T/C reads like this: (dose: 5.0 mg/kg/injection, schedule: Q07DX002 (ip), vehicle: saline) 43 % of control; under setting [1], 86 % of control; (dose: 10.0 mg/kg/injection, schedule: Q07DX002 (ip), vehicle: saline) 65 % of control; under setting [2], 71 % of control; (dose: 20.0 mg/kg/injection, schedule: Q07DX002 (ip), vehicle: saline) 31 % of control; under setting [3], 36 % of control.
In the case of `O=c1[nH]c(=O)n([C@H]2CCCO2)cc1F`, the T/C is 166 % of control (dose: 40.0 mg/kg/injection, schedule: Q07DX003 (ip), vehicle: Klucel (hydroxypropylcellulose) (HPC)); 116 % of control (dose: 80.0 mg/kg/injection, schedule: Q07DX003 (ip), vehicle: Klucel (hydroxypropylcellulose) (HPC)); 57 % of control (dose: 160.0 mg/kg/injection, schedule: Q07DX003 (ip), vehicle: Klucel (hydroxypropylcellulose) (HPC)); 25 % of control (dose: 320.0 mg/kg/injection, schedule: Q07DX003 (ip), vehicle: Klucel (hydroxypropylcellulose) (HPC)).
On to `OCCN1CCN(CC/C=C2/c3ccccc3Sc3ccc(C(F)(F)F)cc32)CC1`, for which the T/C under setting [4] is 110 % of control; the T/C under setting [5] was 121 % of control; the T/C under setting [6] is 100 % of control; the T/C under setting [7] is 95 % of control; the T/C under setting [8] is 120 % of control; the T/C under setting [9] was 68 % of control.
Take `CC(C)NC(=O)N(CCCCBr)N=O`: the T/C is, setting by setting: under setting [10], 90 % of control; under setting [11], 86 % of control; under setting [12], 70 % of control; under setting [13], 56 % of control.
Turning to `Oc1c(Cl)cc(C(c2cc(Cl)c(O)c(Cl)c2)C(c2cc(Cl)c(O)c(Cl)c2)c2cc(Cl)c(O)c(Cl)c2)cc1Cl`, the T/C (dose: 12.5 mg/kg/injection, schedule: Q07DX002 (ip), vehicle: Klucel (hydroxypropylcellulose) (HPC)) was 115 % of control and 99 % of control; the T/C under setting [10] was 123 % of control; the T/C under setting [11] was 96 % of control; the T/C under setting [12] is 95 % of control and 104 % of control; the T/C under setting [13] was 63 % of control and 86 % of control; the T/C (dose: 400.0 mg/kg/injection, schedule: Q07DX002 (ip), vehicle: Klucel (hydroxypropylcellulose) (HPC)) was 57 % of control and 82 % of control.
As for `CCC12C[N+]3([O-])CCc4c([nH]c5ccccc45)C(C(=O)OC)(c4cc5c(cc4OC)N(C)C4C(O)(C(=O)OC)C(OC(C)=O)C6(CC)C=CCN7CCC54C76)CC(C3)C1O2` (centres undefined), the T/C reads like this: (dose: 1.25 mg/kg/injection, schedule: Q07DX002 (ip), vehicle: water) 113 % of control; (dose: 2.5 mg/kg/injection, schedule: Q07DX002 (ip), vehicle: water) 90 % of control; under setting [1], 84 % of control; under setting [2], 108 % of control; under setting [3], 82 % of control; (dose: 40.0 mg/kg/injection, schedule: Q07DX002 (ip), vehicle: water) 94 % of control.
Regarding `Cc1cc(O)c(N=Nc2ccc(C(=O)O)cc2)cc1C`, the T/C is, setting by setting: (dose: 25.0 mg/kg/injection, schedule: Q07DX002 (ip), vehicle: saline with Tween-80) 108 % of control; (dose: 50.0 mg/kg/injection, schedule: Q07DX002 (ip), vehicle: saline with Tween-80) 104 % of control; (dose: 100.0 mg/kg/injection, schedule: Q07DX002 (ip), vehicle: saline with Tween-80) 100 % of control; (dose: 200.0 mg/kg/injection, schedule: Q07DX002 (ip), vehicle: saline with Tween-80) 55 % of control; (dose: 400.0 mg/kg/injection, schedule: Q07DX002 (ip), vehicle: saline with Tween-80) 84 % of control.
`COc1ccc(OC)c(Cc2cnc3nc(N)nc(N)c3c2C)c1`: the T/C was 62 % of control (dose: 12.5 mg/kg/injection, schedule: Q07DX002 (ip), vehicle: water); 96 % of control (dose: 25.0 mg/kg/injection, schedule: Q07DX002 (ip), vehicle: water); 67 % of control and 82 % of control (dose: 50.0 mg/kg/injection, schedule: Q07DX002 (ip), vehicle: water); 93 % of control and 100 % of control (dose: 100.0 mg/kg/injection, schedule: Q07DX002 (ip), vehicle: water); 32 % of control (dose: 200.0 mg/kg/injection, schedule: Q07DX002 (ip), vehicle: water).
Consider `CN(Cc1cnc2nc(N)nc(N)c2n1)c1ccc(C(=O)N[C@@H](CCC(=O)O)C(=O)O)cc1`, for which the T/C by setting is: (dose: 1.25 mg/kg/injection, schedule: Q07DX002 (ip), vehicle: sodium bicarbonate) 105 % of control; (dose: 2.5 mg/kg/injection, schedule: Q07DX002 (ip), vehicle: sodium bicarbonate) 167 % of control and 170 % of control; (dose: 5.0 mg/kg/injection, schedule: Q07DX002 (ip), vehicle: sodium bicarbonate) 122 % of control; (dose: 10.0 mg/kg/injection, schedule: Q07DX002 (ip), vehicle: sodium bicarbonate) 111 % of control; (dose: 20.0 mg/kg/injection, schedule: Q07DX002 (ip), vehicle: sodium bicarbonate) 115 % of control and 117 % of control.
In the case of `C=C1C(=O)C23C(O)CC4C5(C)CCCC4(C(O)OC5)C2C(OC(C)=O)CC1C3O` (centres undefined), the T/C is, setting by setting: (dose: 8.0 mg/kg/injection, schedule: Q07DX002 (ip), vehicle: Klucel (hydroxypropylcellulose) (HPC)) 72 % of control; (dose: 8.0 mg/kg/injection, schedule: Q07DX002 (ip), vehicle: saline) 124 % of control; (dose: 16.0 mg/kg/injection, schedule: Q07DX002 (ip), vehicle: Klucel (hydroxypropylcellulose) (HPC)) 72 % of control; (dose: 16.0 mg/kg/injection, schedule: Q07DX002 (ip), vehicle: saline) 106 % of control; (dose: 32.0 mg/kg/injection, schedule: Q07DX002 (ip), vehicle: Klucel (hydroxypropylcellulose) (HPC)) 106 % of control; (dose: 32.0 mg/kg/injection, schedule: Q07DX002 (ip), vehicle: saline) 117 % of control. Besides, the T/C was 112 % of control (dose: 64.0 mg/kg/injection, schedule: Q07DX002 (ip), vehicle: Klucel (hydroxypropylcellulose) (HPC)); 101 % of control (dose: 64.0 mg/kg/injection, schedule: Q07DX002 (ip), vehicle: saline); 79 % of control (dose: 128.0 mg/kg/injection, schedule: Q07DX002 (ip), vehicle: Klucel (hydroxypropylcellulose) (HPC)).
For `C[n+]1c(-c2cccc3ccccc23)c2cc(N)ccc2c2ccccc21`, the T/C runs as follows: under setting [5], 107 % of control; (dose: 3.12 mg/kg/injection, schedule: Q07DX002 (ip), vehicle: suspension in saline) 160 % of control; under setting [6], 122 % of control; (dose: 6.25 mg/kg/injection, schedule: Q07DX002 (ip), vehicle: suspension in saline) 110 % of control; under setting [7], 64 % of control and 85 % of control; (dose: 12.5 mg/kg/injection, schedule: Q07DX002 (ip), vehicle: suspension in saline) 256 % of control. Besides, the T/C was 67 % of control and 79 % of control under setting [8]; 193 % of control (dose: 25.0 mg/kg/injection, schedule: Q07DX002 (ip), vehicle: suspension in saline).
For `CC1CN1P1(N2CC2C)=NP(N2CC2C)(N2CC2C)=NP(N2CC2C)(N2CC2C)=N1` (centres undefined), the T/C by setting is: under setting [6], 103 % of control; under setting [7], 104 % of control; under setting [8], 111 % of control; under setting [9], 155 % of control; (dose: 100.0 mg/kg/injection, schedule: Q07DX002 (ip), vehicle: saline) 70 % of control and 94 % of control.
Turning to `N=C(N)CCCCCCCCC(=N)N`, the T/C is, setting by setting: under setting [4], 102 % of control; under setting [5], 88 % of control and 99 % of control; under setting [6], 107 % of control; under setting [7], 76 % of control; under setting [8], 112 % of control.
